Consider two compounds from US12391691B2, “Synthesis of key intermediate of KRAS G12C inhibitor compound” (Amgen Inc., priority 2018, dated 2025).

The nature of one data set: physchem. The conditions noted are these: organic solvent or mixture, thermodynamic from solid.
Data set [1] can be described thus: 5-day equilibrium solubility of M/P-Dione (ternary phase diagram). The conditions noted are these: 2-MeTHF/n-heptane (1.4:1, v/v), RT, 5 days; for Solid XRPD: residual solid.
The mark [2] stands for this setting: #3: 20.2 mg M-Dione + 119.3 mg P-Dione.
Where [3] appears, read: #4: 89.8 mg M-Dione + 90.3 mg P-Dione.
[4] abbreviates: #5: 121.1 mg M-Dione + 40.7 mg P-Dione.
Setting [5] is: #6: 90.2 mg M-Dione + 19.5 mg P-Dione.
Setting [6] is: #7: 41.6 mg M-Dione + 39.9 mg P-Dione.
Where [7] appears, read: #8: 39.2 mg M-Dione + 120.3 mg P-Dione.
The mark [8] stands for this setting: #9: 119.1 mg M-Dione + 20.5 mg P-Dione.

Usually solubility stands for how much of the substance goes into solution per volume.

Structures are written as SMILES. In brackets after ≈: the same amount, converted by molar mass.

On to `O=C(O[C@H](C(=O)O)[C@H](OC(=O)c1ccccc1)C(=O)O)c1ccccc1` [DBTA, (+)-2,3-dibenzoyl-D-tartaric acid], for which the solubility at 5 days in “physchem” (20 °C) is 99.1 mg/mL (≈ 277 mM); in the data set “physchem” (30 °C), 100 mg/mL (≈ 280 mM); in “physchem” (40 °C) it was 98.9 mg/mL (≈ 276 mM); in the data set “physchem” (50 °C), 88 mg/mL (≈ 246 mM); in the data set “physchem” (60 °C), 105 mg/mL (≈ 293 mM); in “physchem” (65 °C), 96.1 mg/mL (≈ 268 mM). In addition, in the data set “physchem”, the solubility at 5 days is approximately 100 mg/mL (≈ 279 mM).

In the case of `Cc1ccnc(C(C)C)c1-n1c(=O)[nH]c(=O)c2cc(F)c(Cl)nc21` [M/P-Dione], the Solid de in data set [1] (setting [2]) is reported as −69.2%; in data set [1] (setting [3]) it was 0.6%; in data set [1] (setting [4]) it was 27.0%; in data set [1] (setting [5]), 35.0%; in data set [1] (setting [6]) it was 1.4%; in data set [1] (setting [7]), −39.1%. In addition, the Solid de in data set [1] (setting [8]) was determined as 54.9%. For the same compound, the “Supernatant [M]/[P]” value in data set [1] (setting [2]) amounted to 0.2; in data set [1] (setting [3]), 0.9; in data set [1] (setting [4]) it was 33.4; in data set [1] (setting [5]), 37.6; in data set [1] (setting [6]) it was 1.1; in data set [1] (setting [7]), 0.2. Further, the “Supernatant [M]/[P]” value in data set [1] (setting [8]) came to 34.5. For the same compound, the Supernatant de is given as −73.6% in data set [1] (setting [2]); −3.9% in data set [1] (setting [3]); 94.2% in data set [1] (setting [4]); 94.8% in data set [1] (setting [5]); 4.4% in data set [1] (setting [6]); −72.8% in data set [1] (setting [7]). In data set [1] (setting [8]), the Supernatant de is on record as 94.4%. Besides, the “Solid XRPD” value was “A + RD” in data set [1] (setting [2]); “A + RC” in data set [1] (setting [4]); “A + RC” in data set [1] (setting [5]); “A + RD” in data set [1] (setting [7]); “A + RC” in data set [1] (setting [8]).
